Data: paper PMC4503256 (Biopharmaceutics & drug disposition, 2012)
Read-outs that look alike come from different tables or passages of the source. Marks after values point to notes of the source that are not given here.

Assays:
[1] = cited from earlier work
[2] = measured value; cited from earlier work
[3] = cited from earlier work; for Log D: measured value
[4] = measured value; cited from earlier work; remark: listed apart in the source
[5] = In vitro partitioning experiments in two-phase dissolution apparatus; format: physicochemical
[6] = format: physicochemical; conditions: sodium acetate buffer 50 mM, pH 4.5, isotonic; unpublished data

Structure (SMILES): CCCC(CCC)C(=O)O [Valproic acid]
- Fa (fraction absorbed in vivo), actual ([1]; humans, oral solutions): 1
- ka × 10^4 (first-order absorption rate constant), decon. ([1]; humans, oral solutions, printed value = ka × 10^4): 11.5 s^−1

Structure (SMILES): CN1C(C(=O)Nc2ccccn2)=C(O)c2ccccc2S1(=O)=O [Piroxicam]
- pKa at 37 °C (basic) [2]: 2.3 (basic)^c
- Log D ([3]; pH 1.2): pH 1.2: 0.92^f
- Apparent partition coefficient ([3]; pH 7.5, 37 °C, ref Yazdanian et al. 27): 0.8
- Log D ([3]; pH 7.5): pH 7.5: 0.8^g
- Intrinsic solubility at 37 °C [4]: 6.6 × 10^−5f M

Structure (SMILES): Cc1nccn1CC1CCc2c(c3ccccc3n2C)C1=O (stereo not drawn) [Ondansetron]
- Fa (fraction absorbed in vivo), actual ([1]; humans, oral solutions): 1

Structure (SMILES): CC(C)Cc1ccc(C(C)C(=O)O)cc1 (stereo not drawn) [Ibuprofen]
- Best-fit PI for all conditions ([5]; Apparatus 1, experiments 3–6 (pH 1.5–6.3), 77 rpm, range of 2.2–4.8 × 10^−3): 3000 ×10⁻⁶ cm/s
- PI × 10^4 (best fit) ([5]; Exp. 3, Fig 3(a), Apparatus 1, pH 1.5, 77 rpm, A/Va 0.42 cm^−1, MT/Va 16.7 μg/ml): 23.71 cm/s × 10^4
- PI × 10^4 (best fit) ([5]; Exp. 4, Fig 3(b), Apparatus 1, pH 4.3, 77 rpm, A/Va 0.42 cm^−1, MT/Va 16.7 μg/ml): 30.06 cm/s × 10^4
- PI × 10^4 (best fit) ([5]; Exp. 5, Fig 3(c), Apparatus 1, pH 4.4, 77 rpm, A/Va 0.42 cm^−1, MT/Va 16.7 μg/ml): 37.52 cm/s × 10^4
- PI × 10^4 (best fit) ([5]; Exp. 6, Fig 3(d), Apparatus 1, pH 6.3, 77 rpm, A/Va 0.42 cm^−1, MT/Va 16.7 μg/ml): 30.81 cm/s × 10^4
- PI × 10^4 (best fit) ([5]; Exp. 7, Fig 4(a), Apparatus 2, pH 5.0, 75 rpm, A/Va 0.30 cm^−1, MT/Va 25.0 μg/ml): 19.08 cm/s × 10^4
- PI × 10^4 (best fit) ([5]; Exp. 8, Fig 4(b), Apparatus 2, pH 6.8, 75 rpm, A/Va 0.30 cm^−1, MT/Va 50.0 μg/ml): 28.73 cm/s × 10^4
- PI × 10^4 (best fit) ([5]; Exp. 9, Fig 4(c), Apparatus 2, pH 6.8, 75 rpm, A/Va 0.30 cm^−1, MT/Va 25.0 μg/ml): 26.85 cm/s × 10^4
- Dissolution rates of particles, buffer versus buffer saturated with 1-octanol [6]: no difference
- Absorbed in humans ([1]; in vivo): > 99%
